Assay [1] concerns the target T1, Wee1A kinase (CDK1 Tyr15 phosphorylation in ACHN renal cell carcinoma cells) (Homo sapiens, UniProt P30291).
T1 construct: pCDK1 Tyr15 immunofluorescence read-out
The assay can be described thus: High-content imaging of pCdk1 Y15, Wee1A kinase target engagement in ACHN cells. The format is cell-based. The following applies: 4 h treatment, nuclear positivity for pCdk1 Y15 vs DMSO control, read-out: CDK1 Tyr15 Phosphorylation EC50. In a few lines:
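EC50 values come from the per-well fraction of cells with nuclear pCdk1 Y15 staining, normalised to DMSO control, by automated immunofluorescence imaging. Cells were ACHN renal carcinoma, treated 4 h with compound at 7–5,000 nM or 0.3–200 nM.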

In assay [2] the target is T2, Myt1 kinase (recombinant PMYT-1) (Homo sapiens, UniProt Q99640).
T2 construct: full length PMYT-1 was expressed by baculovirus in insect cells; purchased Invitrogen A30984; host or cells: insect cells (baculovirus)
T2 sequence (Q99640 1-499): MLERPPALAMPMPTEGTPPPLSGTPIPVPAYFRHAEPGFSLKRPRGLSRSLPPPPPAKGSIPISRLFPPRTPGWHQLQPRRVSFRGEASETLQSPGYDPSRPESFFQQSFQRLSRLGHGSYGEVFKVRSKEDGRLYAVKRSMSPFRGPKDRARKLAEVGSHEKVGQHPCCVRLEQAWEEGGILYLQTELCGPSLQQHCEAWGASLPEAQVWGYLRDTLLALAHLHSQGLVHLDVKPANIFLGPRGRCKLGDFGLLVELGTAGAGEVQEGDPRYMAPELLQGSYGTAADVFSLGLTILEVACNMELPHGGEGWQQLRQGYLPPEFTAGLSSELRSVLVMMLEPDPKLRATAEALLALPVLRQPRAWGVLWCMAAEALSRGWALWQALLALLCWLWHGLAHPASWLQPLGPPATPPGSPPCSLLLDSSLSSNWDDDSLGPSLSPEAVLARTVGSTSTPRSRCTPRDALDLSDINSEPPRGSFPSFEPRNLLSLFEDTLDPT
The assay can be described thus: Myt1 kinase binding assay (LanthaScreen Eu Kinase Binding Assay). The following applies: 3 nM tracer 178, 2.5 nM PMYT-1, 1 nM Eu-labeled antibody; read-out: Myt1 kinase Binding IC50. In a few lines:
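Compound binding to Myt1 kinase was assessed using the LanthaScreen Eu Kinase Binding Assay. This europium-based binding format was applied to quantify how strongly each compound bound to the Myt1 enzyme, and the binding affinity was reported for each compound as an IC50 value.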
(In TR-FRET formats the signal depends on donor and acceptor labels being close together.)

For assay [3], the target named is T3, recombinant human Wee1A kinase (Homo sapiens, UniProt P30291).
T3 construct: full length Wee1 kinase was expressed by baculovirus in insect cells; purchased Invitrogen PV3817; host or cells: insect cells (baculovirus)
T3 sequence (P30291 whole entry): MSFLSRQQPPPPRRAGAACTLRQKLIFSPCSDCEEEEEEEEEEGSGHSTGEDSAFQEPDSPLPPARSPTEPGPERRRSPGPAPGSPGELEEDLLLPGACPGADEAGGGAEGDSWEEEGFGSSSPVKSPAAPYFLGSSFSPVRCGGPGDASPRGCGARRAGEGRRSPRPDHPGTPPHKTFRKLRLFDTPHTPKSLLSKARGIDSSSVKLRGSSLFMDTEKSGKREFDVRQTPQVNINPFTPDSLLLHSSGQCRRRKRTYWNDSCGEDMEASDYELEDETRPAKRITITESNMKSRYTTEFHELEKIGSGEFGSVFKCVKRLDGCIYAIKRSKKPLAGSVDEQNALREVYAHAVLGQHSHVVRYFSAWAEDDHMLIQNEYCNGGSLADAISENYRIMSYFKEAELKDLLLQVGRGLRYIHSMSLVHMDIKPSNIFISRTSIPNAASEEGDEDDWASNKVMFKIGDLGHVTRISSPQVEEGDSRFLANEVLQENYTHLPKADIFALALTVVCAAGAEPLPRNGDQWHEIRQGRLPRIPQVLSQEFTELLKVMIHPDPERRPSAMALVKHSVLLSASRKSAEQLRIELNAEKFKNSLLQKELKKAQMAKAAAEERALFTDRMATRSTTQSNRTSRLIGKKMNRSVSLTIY
In words: Wee1A kinase binding assay (LanthaScreen Eu time-resolved FRET). The note with it: 30 nM tracer 178, 5 nM Wee1A kinase, 2 nM Eu-labeled antibody; 60 minutes at room temperature; read-out: Wee1A kinase Binding IC50. In a few lines: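 Full-length, baculovirus-expressed GST-tagged Wee1A (5 nM) was mixed with 2 nM Eu-anti-GST antibody, 30 nM kinase tracer 178 and compound (1% DMSO). Buffer was 50 mM HEPES pH 7.5, 10 mM MgCl2, 1 mM EGTA, 0.01% Brij-35, incubated 60 min at room temperature. TR-FRET 665/615 nm emission ratios from duplicates were curve-fitted.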

Assay [4] concerns the target T4, Myt1 kinase (CDK1 Thr14 phosphorylation in ACHN renal cell carcinoma cells) (Homo sapiens, UniProt Q99640).
T4 construct: pCDK1 Thr14 AlphaLISA read-out
T4 sequence (Q99640 1-499): T2 sequence (Q99640 1-499)
The assay can be described thus: AlphaLISA assay, Myt1 kinase target engagement (phospho-CDK1 Thr14) in ACHN cells. The note with it: ACHN cells (marked *); 4 h treatment. The format is cell-based. The procedure:
Each of an ACHN renal cell carcinoma cell line (ATCC) and a DAOY medulloblastoma cell line, and an A427 lung cancer line were cultured in Minimum Essential Medium Eagle supplemented with 10% fetal calf serum (Sigma), 1% Penicillin-Streptomycin and 10 mM HEPES buffer (HyClone). Cell cultures were kept in a humidified incubator at 37 °C and 5% CO2. Cells were routinely tested for Mycoplasma contamination.
For target engagement assessment of Myt1 kinase inhibition, quantification of Cdk1 phosphorylated on threonine 14 was detected using the AlphaLISA® SureFire® Ultra™ Human Phospho-CDK1 (Thr14) assay (Perkin Elmer). DAOY or ACHN cells were seeded into tissue culture treated 96-well plates (VWR) to a density of 10,000 or 20,000 cells per well respectively. 24 h post seeding cells were treated for 4 h with compounds at concentrations ranging from 7 to 5000 nM. Cells were washed with PBS and lysed in 50 μl AlphaLISA lysis buffer before freezing at −80 C. Ten ul of the lysate was transferred to 384 well plates and incubated with AlphaLISA donor and acceptor beads according to the manufacturer's instructions. Dose response curves and EC50 values were calculated and visualized using GraphPad Prism version 9. Target engagement for Myt1 kinase can also be measured using the same AlphaLISA assay in OVCAR3 cells, an ovarian cancer cell line. NIH:OVCAR-3 (OVCAR3) cells are cultured in RPMI-1640 medium supplemented with 0.01 mg/ml insulin, 20% FBS, 1% Penicillin-Streptomycin and 10 mM HEPES buffer. 14,000 cells per well are seeded into 96 well tissue culture plates in full medium. Twenty-four hours post seeding, cells are treated with compound for 4 hours at concentrations ranging from 0.017 nM to 1000 nM.
On the technique in general: Alpha assays give light when donor and acceptor beads are brought close together.

Assay [5] deals with T5, Myt1 kinase (CDK1 Thr14 phosphorylation in DAOY medulloblastoma cells) (Homo sapiens, UniProt Q99640).
T5 construct: pCDK1 Thr14 AlphaLISA read-out
T5 sequence (Q99640 1-499): T2 sequence (Q99640 1-499)
In words: AlphaLISA assay, Myt1 kinase target engagement (phospho-CDK1 Thr14) in DAOY cells. It counts as cell-based. The following applies: 4 h treatment, read-out: CDK1 Thr14 Phosphorylation EC50. A digest of the protocol:
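Cells seeded at 10,000 (DAOY) or 20,000 (ACHN) per well, treated 24 h later for 4 h with compound at 7–5000 nM. Lysates analysed by AlphaLISA SureFire Ultra phospho-CDK1 (Thr14) with donor/acceptor beads; EC50 from dose-response curves.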

The subject of another assay is ACHN cells. The assay can be described thus: Cell Titer Glo viability assay, ACHN cells. It counts as cell-based. The following applies: Homo sapiens, 144 h, absolute EC50. A digest of the protocol:
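Cells grown in MEM with 10% FCS were seeded at 500 (A427), 400 (ACHN) or 250 (DAOY) per well and treated the next day with compound at 17 to 10 000 nM. Viability relative to untreated control was read at 144 h by CellTiter-Glo 2.0.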
(ATP-based viability assays read luminescence as a measure of living cells.)

T1 sequence (P30291 whole entry): as above

What is called EC50 is the concentration that produces a half-maximal response. What is called IC50 is the concentration needed to halve the response being measured. For the compound `C=CCn1c(=O)c2cnc(Nc3ccc4c(cnn4C)c3)nc2n1-c1cccc(OC2CCCN(C)CC2)n1` (single isomer, unassigned) [Compound 374], the EC50 in assay [1] was < 100 nM; in assay [4], 500 to 1000 nM. Further, the results for the IC50 in assay [2] and in assay [3] were 20 to 100 nM and < 10 nM, respectively.

For the compound `C=CCn1c(=O)c2cnc(Nc3ccc(N4CCOCC4)c(C)c3)nc2n1-c1cccc(OC2CCN(C)CC2)n1` [Compound 270, 2-allyl-1-[6-(1-methyl-4-piperidyloxy)-2-pyridyl]-6-(4-morpholino-3-toluidino)-1,2-dihydro-3H-1,2,5,7-tetraazainden-3-one], the EC50 in assay [1] was < 100 nM; in assay [5], < 200 nM; with ACHN cells, ≤ 100 nM. For the same compound, the IC50 in assay [2] is < 20 nM; in assay [3] it was < 10 nM.

Turning to `C=CCn1c(=O)c2cnc(Nc3ccc4nn(C)cc4c3)nc2n1-c1cccc(OC2CCN(C)CC2)n1` [Compound 273, 2-allyl-6-((2-methyl-2H-indazol-5-yl)amino)-1-(6-((1-methylpiperidin-4-yl)oxy)pyridin-2-yl)-1,2-dihydro-3H-pyrazolo[3,4-d]pyrimidin-3-one], the figures for the half-maximal effective concentration (EC50) (in assay [1]; in assay [5]; with ACHN cells) were < 100 nM, < 200 nM and ≤ 100 nM, respectively. The IC50 is < 20 nM in assay [2] and < 10 nM in assay [3].

For `C=CCn1c(=O)c2cnc(Nc3ccc(C#N)c(C)c3)nc2n1-c1cccc(OC2CCNCC2)n1` [Compound 293, 5-{2-allyl-3-oxo-1-[6-(4-piperidyloxy)-2-pyridyl]-1,2-dihydro-3H-1,2,5,7-tetraazainden-6-ylamino}-2-toluonitrile], the EC50 is < 100 nM in assay [1], 200 to 500 nM in assay [5] and 100 to 500 nM in the assay with ACHN cells. The IC50 in assay [2] was 20 to 100 nM; in assay [3], < 10 nM.

For the compound `C=CCn1c(=O)c2cnc(Nc3ccc4c(cnn4C)c3)nc2n1-c1ccnc(NC2CCN(C)CC2)n1` [Compound 313, 2-allyl-6-(1-methyl-1H-indazol-5-ylamino)-1-[2-(1-methyl-4-piperidylamino)-4-pyrimidinyl]-1,2-dihydro-3H-1,2,5,7-tetraazainden-3-one], the EC50 in assay [1] is < 100 nM; in assay [5] it was > 1000 nM; in the assay on ACHN cells, ≤ 100 nM. Further, the IC50 in assay [2] was 20 to 100 nM; in assay [3], < 10 nM.

With `C=CCn1c(=O)c2cnc(Nc3ccc4c(c3)ncn4C)nc2n1-c1cccc(OC2CCNCC2)n1` [Compound 319, 2-allyl-6-((1-methyl-1H-benzo[d]imidazol-5-yl)amino)-1-(6-(piperidin-4-yloxy)pyridin-2-yl)-1,2-dihydro-3H-pyrazolo[3,4-d]pyrimidin-3-one], the values for the EC50 (in assay [1]; in assay [5]; in the assay with ACHN cells) were 100 to 500 nM, > 1000 nM and 500 to 1000 nM, respectively. Besides, the values for the IC50 in assay [2] and in assay [3] were 20 to 100 nM and < 10 nM, respectively.

As to `C=CCn1c(=O)c2cnc(Nc3ccc4c(cnn4C)c3)nc2n1-c1cccc(OC2CCN(CC)CC2)n1` [Compound 321, 2-allyl-1-[6-(1-ethyl-4-piperidyloxy)-2-pyridyl]-6-(1-methyl-1H-indazol-5-ylamino)-1,2-dihydro-3H-1,2,5,7-tetraazainden-3-one], the values for the EC50 (in assay [1]; in assay [5]; in the assay on ACHN cells) were < 100 nM, 500 to 1000 nM and ≤ 100 nM, respectively. Further, the figures for the IC50 in assay [2] and in assay [3] were 20 to 100 nM and < 10 nM, respectively.

Take `C=CCn1c(=O)c2cnc(Nc3ccc4ccncc4c3)nc2n1-c1cccc(OC2CCN(C)CC2)n1` [Compound 326, 2-allyl-6-(7-isoquinolylamino)-1-[6-(1-methyl-4-piperidyloxy)-2-pyridyl]-1,2-dihydro-3H-1,2,5,7-tetraazainden-3-one]: the values for the EC50 in assay [1] and in assay [4] were < 100 nM and 200 to 500 nM, respectively. In addition, the IC50 in assay [2] was 20 to 100 nM; in assay [3], < 10 nM.

With `C=CCn1c(=O)c2cnc(Nc3ccc4[nH]nc(C)c4c3)nc2n1-c1cccc(OC2CCN(C)CC2)n1` [Compound 355, 2-allyl-6-((3-methyl-1H-indazol-5-yl)amino)-1-(6-((1-methylpiperidin-4-yl)oxy)pyridin-2-yl)-1,2-dihydro-3H-pyrazolo[3,4-d]pyrimidin-3-one], the EC50 in assay [1] was < 100 nM; in assay [4] it was 200 to 500 nM. Besides, the IC50 in assay [2] is < 20 nM; in assay [3] it was < 10 nM.

For `C=CCn1c(=O)c2cnc(Nc3ccc(Br)cc3)nc2n1-c1cccc(OC2CCN(C)CC2)n1` [Compound 370, 2-allyl-6-(p-bromophenylamino)-1-[6-(1-methyl-4-piperidyloxy)-2-pyridyl]-1,2-dihydro-3H-1,2,5,7-tetraazainden-3-one], the values for the EC50 in assay [1] and in assay [4] were < 100 nM and 200 to 500 nM, respectively. Further, the IC50 in assay [2] was < 20 nM; in assay [3], < 10 nM.

For the compound `[2H]C([2H])([2H])N1CCC(Oc2nccc(-n3c4nc(Nc5ccc6c(cnn6C)c5)ncc4c(=O)n3CC=C)n2)CC1` [Compound 383, 2-allyl-6-(1-methyl-1H-indazol-5-ylamino)-1-(2-{1-[(^2H3)methyl]-4-piperidyloxy}-4-pyrimidinyl)-1,2-dihydro-3H-1,2,5,7-tetraazainden-3-one], the IC50 was 20 to 100 nM in assay [2] and < 10 nM in assay [3]. The EC50 in assay [4] fell in the range of 500 to 1000 nM.

On to `C=CCn1c(=O)c2cnc(Nc3ccc4cnn(C)c4c3)nc2n1-c1cccc(OC2CCN(C)CC2)n1` [Compound 389, 2-allyl-6-((1-methyl-1H-indazol-6-yl)amino)-1-(6-((1-methylpiperidin-4-yl)oxy)pyridin-2-yl)-1,2-dihydro-3H-pyrazolo[3,4-d]pyrimidin-3-one], for which the results for the EC50 in assay [1] and in assay [4] were < 100 nM and < 200 nM, respectively. Also, the IC50 is 20 to 100 nM in assay [2] and < 10 nM in assay [3].

Turning to `C=CCn1c(=O)c2cnc(Nc3ccc4nn(C(C)(C)C)cc4c3)nc2n1-c1cccc(OC2CCNCC2)n1` [Compound 395, 2-allyl-6-((2-(tert-butyl)-2H-indazol-5-yl)amino)-1-(6-(piperidin-4-yloxy)pyridin-2-yl)-1,2-dihydro-3H-pyrazolo[3,4-d]pyrimidin-3-one], the EC50 in assay [1] was < 100 nM; in assay [4], > 1000 nM. The figures for the IC50 in assay [2] and in assay [3] were < 20 nM and < 10 nM, respectively.

For the origin of these results see patent publication US20260364080A1, “PYRAZOLO-PYRIMIDINONE COMPOUNDS FOR USE IN METHODS OF INHIBITING WEE1 A KINASE” (Acrivon Therapeutics, Inc., priority 2023, published 2026).
